Data on 1 molecule can be found in PMC1977928, “Chlorambucil-monoglutathionyl conjugate is sequestered by human alpha class glutathione S-transferases” (British Journal of Cancer, 1992).

Bounds are passed on as bounds.

What all share (format): biochemical
The target of one experiment is T1, GST P1-1 (Homo sapiens, UniProt P09211).
T1 construct: gene GSTP1; homodimer purified from human kidney cytosol
Briefly: inhibition of CDNB conjugation activity.

The next experiment concerns the target T2, GST M1a-1a (Homo sapiens, UniProt P09488).
T2 construct: gene GSTM1; homodimer purified from human liver cytosol
T2 sequence (P09488 2-218): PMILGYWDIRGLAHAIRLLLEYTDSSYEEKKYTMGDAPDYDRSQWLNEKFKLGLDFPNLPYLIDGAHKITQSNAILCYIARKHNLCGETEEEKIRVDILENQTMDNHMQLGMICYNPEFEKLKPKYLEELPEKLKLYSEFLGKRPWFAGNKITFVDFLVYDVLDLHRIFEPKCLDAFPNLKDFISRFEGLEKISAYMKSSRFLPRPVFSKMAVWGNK
Description: inhibition of CDNB conjugation activity.

The next experiment deals with T3, GST A1-1 (Homo sapiens, UniProt P08263).
T3 construct: gene GSTA1; homodimer purified from human liver cytosol
T3 sequence (P08263 2-222): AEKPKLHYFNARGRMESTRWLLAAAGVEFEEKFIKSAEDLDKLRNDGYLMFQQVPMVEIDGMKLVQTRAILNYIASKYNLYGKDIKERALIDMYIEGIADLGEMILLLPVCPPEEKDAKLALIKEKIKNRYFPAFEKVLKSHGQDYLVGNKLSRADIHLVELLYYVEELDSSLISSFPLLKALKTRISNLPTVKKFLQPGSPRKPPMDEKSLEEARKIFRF
Briefly: inhibition of CDNB conjugation activity (Dixon and Hanes plots). The source says: inhibition of CDNB conjugation activity (Dixon and Hanes plots) on GST A1-1 | CHBSG was a pure competitive inhibitor of the activity of GSTs A1-1 and A2-2 towards 1-chloro-2,4-dinitrobenzene

Another experiment deals with T4, GST A2-2 (Homo sapiens, UniProt P09210).
T4 construct: gene GSTA2; homodimer purified from human liver cytosol
T4 sequence (P09210 2-222): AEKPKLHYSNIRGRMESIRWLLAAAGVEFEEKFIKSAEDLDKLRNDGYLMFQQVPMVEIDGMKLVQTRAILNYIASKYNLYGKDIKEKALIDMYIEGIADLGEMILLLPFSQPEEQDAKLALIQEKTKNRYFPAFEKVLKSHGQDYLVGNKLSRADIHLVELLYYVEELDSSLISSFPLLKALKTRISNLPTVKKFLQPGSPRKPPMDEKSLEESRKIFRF
The experiment is described as above.

T1 sequence (P09211 2-210): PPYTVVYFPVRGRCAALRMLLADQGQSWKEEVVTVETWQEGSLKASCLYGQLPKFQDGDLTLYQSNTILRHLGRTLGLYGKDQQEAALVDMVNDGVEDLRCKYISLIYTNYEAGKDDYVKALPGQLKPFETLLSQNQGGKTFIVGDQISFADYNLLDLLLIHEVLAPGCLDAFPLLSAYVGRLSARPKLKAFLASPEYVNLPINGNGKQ

Consider `N[C@@H](CCC(=O)N[C@@H](CSCCN(CCCl)c1ccc(CCCC(=O)O)cc1)C(=O)NCC(=O)O)C(=O)O` [CHBSG], for which the “inhibition of CDNB conjugation activity” value against GST P1-1 and at GST M1a-1a was > 10 µM throughout. Moreover, the Ki (as a rule, the equilibrium dissociation constant of an inhibitor or competing ligand from its target) on GST A1-1 worked out at 1.3 µM; at GST A2-2, 1.2 µM.
